Patent publication US20130225524A1, “Chemical Compounds” (priority 2010, published 2013)
Where a name gives a salt, the structure may show the parent alone.

Target: lactate dehydrogenase A (LDH-A) (Homo sapiens, UniProt P00338)
Assay: biochemical
Description: Assay buffer (50 mM potassium phosphate, pH 7.0, 50 mM NaCl, 0.25 mM CHAPS, 0.0025% BSA) is added to one column of a standard assay plate stamped with DMSO solutions of test compounds. A solution of LDH-A and NAD+ (final concentrations: 300 pM LDH-A and 150 uM NAD+) in assay buffer is added to remaining plate wells containing DMSO solutions of test compounds and DMSO only control wells and the mixtures incubated for 10 min at room temperature. A solution of lactate, resazurin, diaphorase (final concentrations: 2 mM lactate, 6.25 uM resazurin, 0.4 U/mL diaphorase) in assay buffer is added to all wells and the mixtures incubated for 30 min at room temperature. Stop solution (2 uL, components: assay buffer and 25 mM oxamate) is added to each well and the fluoresecence intensity increase (FLINT) measured at 590 nm on a ViewLux®imager.

COc1ncc(-c2ccc3c(Nc4cc(C(=O)O)cc(C(C)C(C)C)c4)c(C(N)=O)cnc3c2)c(OC)n1 (stereo not shown) [Example 60, 3-({3-(aminocarbonyl)-7-[2,4-bis(methyloxy)-5-pyrimidinyl]-4-quinolinyl}amino)-5-(1,2-dimethylpropyl)benzoic acid, acetate salt]
IC50: 63.1 nM
